In this assay the test system is HT-29 human colon cancer cell line. Kind of assay: In vitro cytostatic effect, alamarBlue assay, HT-29. It counts as cell-based. The source says: Cell lines often function as the first model system of choice to study biological processes or to test the efficiency of drugs or drug conjugates and their cytotoxic effects. Immortal cell lines offer various benefits, for instance they are easy to handle, cost-effective and provide consistent sample and reproducible results. Nevertheless, cell lines also present the disadvantage that after a period of continuous growth, cell characteristics can change and dedifferentiate in culture. The serial passaging can cause genotypic and phenotypic variations and the state of confluency can also affect gene expression pattern in some cell lines. Due to this, the usage of internal standards during the evaluation of new potential candidates might be necessary to ensure comparability with previous results. The cytostatic effect of the novel GnRH-III bioconjugates was determined on HT-29 human colon cancer and MCF-7 human breast cancer cell lines by alamarBlue® assay. For a better comparison, the well-studied bioconjugates GnRH-III–[^8Lys(Dau=Aoa)] (K1) and GnRH-III–[^4Lys(Bu), ^8Lys(Dau=Aoa)] (K2) were used as positive controls and internal standards. The corresponding IC50 values were calculated by using nonlinear regression (sigmoidal dose response) (Figure 3, Table 2). Unfortunately, the D-Trp containing compounds 3 and 6 started to precipitate in both cell culture media at higher concentrations limiting the concentration down to a maximum of 10 µM. This effect could not be prevented by using DMSO instead of ddH2O for the preparation of the stock solutions. Unfortunately, the lower concentration range with a maximum of 10 µM was not sufficient to achieve the dose-response. […] Nevertheless, the replacement of ^6Asp by D-Asp, D-Glu or D-Trp led to a decreased cytostatic effect on the estimated cancer cell lines.
MCF-7 human breast adenocarcinoma cells were cultured in Dulbecco’s Modified Eagle Medium (DMEM, Lonza, Basel, Switzerland), supplemented with 10% (v/v) fetal bovine serum (FBS, Lonza), L-glutamine (2 mM, Lonza), non-essential amino acids (NEAA, Sigma-Aldrich Kft), sodium pyruvate (1 mM, Lonza) and penicillin-streptomycine (Lonza). […]
Cells were seeded to 96-well plates (Sarstedt, Nümbrecht, Germany, 5 × 10^3 cells/well) one day prior to the treatment in complete cell medium. […] Fluorescence was detected using Synergy H4 multi-mode microplate reader (BioTek, Winooski, VT, USA), excitation and emission wavelengths were set to 570 and 620 nm, respectively. Cytostasis was measured using 4 parallels, each experiment was repeated twice. Cytostatic effect (and IC50 values) were calculated by using nonlinear regression (sigmoidal dose response) with Origin Pro8 (OriginLab Corp., Northampton, MA, USA.).

Like-named read-outs stand apart in the source and are kept apart here. Non-standard residues stand in square brackets, D forms with d. Residues, ends and D or L forms follow the SMILES beside them. *: point of attachment. Daunorubicin(13-NOCH2CO) = COc1cccc2c1C(=O)c1c(O)c3c(c(O)c1C2=O)C[C@@](O)(C(C)=NOCC(=O)*)C[C@@H]3O[C@H]1C[C@H](N)[C@H](O)[C@H](C)O1; pGlu = O=C1CC[C@@H](C(=O)O)N1; Butyryl = CCCC(=O)*

In the case of `COc1cccc2c1C(=O)c1c(O)c3c(c(O)c1C2=O)C[C@@](O)(C(C)=NOCC(=O)NCCCC[C@H](NC(=O)[C@H](Cc1c[nH]c2ccccc12)NC(=O)[C@@H](CCC(=O)O)NC(=O)[C@H](Cc1c[nH]cn1)NC(=O)[C@H](CO)NC(=O)[C@H](Cc1c[nH]c2ccccc12)NC(=O)[C@H](Cc1c[nH]cn1)NC(=O)[C@@H]1CCC(=O)N1)C(=O)N1CCC[C@H]1C(=O)NCC(N)=O)C[C@@H]3O[C@H]1C[C@H](N)[C@H](O)[C@H](C)O1` [compound 2, [6D-Glu, 8Lys(Dau=Aoa)]] ([pGlu]HWSH[dE]WK(Daunorubicin(13-NOCH2CO))PG-NH2), where the note is “24 h”, the IC50 worked out at 10.1 ± 1.4 µM.

Consider `CCCC(=O)NCCCC[C@H](NC(=O)[C@H](Cc1c[nH]c2ccccc12)NC(=O)[C@H](Cc1c[nH]cn1)NC(=O)[C@@H]1CCC(=O)N1)C(=O)N[C@@H](Cc1c[nH]cn1)C(=O)N[C@H](CCC(=O)O)C(=O)N[C@@H](Cc1c[nH]c2ccccc12)C(=O)N[C@@H](CCCCNC(=O)CON=C(C)[C@]1(O)Cc2c(O)c3c(c(O)c2[C@@H](O[C@H]2C[C@H](N)[C@H](O)[C@H](C)O2)C1)C(=O)c1c(OC)cccc1C3=O)C(=O)N1CCC[C@H]1C(=O)NCC(N)=O` [compound 5, [4Lys(Bu), 6D-Glu, 8Lys(Dau=Aoa)]] ([pGlu]HWK(Butyryl)H[dE]WK(Daunorubicin(13-NOCH2CO))PG-NH2), for which, under “24 h treatment, then 48 h in complete medium, alamarBlue, mean ± SE, read-out: HT-29 IC50”, the IC50 worked out at 13.7 ± 2.6 µM.

The record behind these values is article PMC5905287, “Synthesis and in vitro biochemical evaluation of oxime bond-linked daunorubicin–GnRH-III conjugates developed for targeted drug delivery” (Beilstein Journal of Organic Chemistry, 2018).
